Results on five molecules are retold here after PMC4076079, “Selective inhibitors of a PAF biosynthetic enzyme lysophosphatidylcholine acyltransferase 2” (Journal of Lipid Research, 2014).

Several values for one entry are separate records, joined by “and”; a condition that tells them apart may be missing. Equal values may be shown once.

Common to all, as to assay type: biochemical
One assay has as its target T1, hLPCAT2 (Homo sapiens, UniProt Q7L5N7).
T1 construct: expressed in transfected cells; host or cells: CHO-S-PAFR cells (microsomal fraction), with or without mcPAF stimulation
T1 sequence (Q7L5N7 1-544): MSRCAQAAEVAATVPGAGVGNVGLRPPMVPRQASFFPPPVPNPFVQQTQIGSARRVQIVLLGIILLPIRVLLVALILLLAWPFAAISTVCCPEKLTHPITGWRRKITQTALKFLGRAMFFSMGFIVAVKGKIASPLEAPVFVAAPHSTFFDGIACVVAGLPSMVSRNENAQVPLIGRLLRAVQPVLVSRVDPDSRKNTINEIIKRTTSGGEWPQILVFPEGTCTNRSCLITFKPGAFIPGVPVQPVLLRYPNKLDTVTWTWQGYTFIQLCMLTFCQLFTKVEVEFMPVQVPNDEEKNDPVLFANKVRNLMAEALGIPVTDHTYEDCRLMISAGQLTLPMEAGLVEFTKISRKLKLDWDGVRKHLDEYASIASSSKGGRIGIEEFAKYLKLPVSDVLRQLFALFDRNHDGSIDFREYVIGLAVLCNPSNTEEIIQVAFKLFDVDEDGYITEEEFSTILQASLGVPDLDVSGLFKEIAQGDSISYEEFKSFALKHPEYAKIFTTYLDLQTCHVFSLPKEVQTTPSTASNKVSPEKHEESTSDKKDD
Briefly: lyso-PAFAT (acetyltransferase) activity assay, PAF product by LC-MS/MS. The settings on record: for IC50: 0, 0.2, 0.6, 2, 6 and 20 μM of each compound in triplicate, LC-MS/MS, read-out: IC50, product PAF, enzyme hLPCAT2; for percentage inhibition, product PAF, hLPCAT2: 20 μM compound, microsomal fractions of nonstimulated CHO-S-PAFR cells, n = 3, mean ± SEM; for selectivity for hLPCAT2 over hLPCAT1: from IC50 values of Table 1. The method, then:
(§1) Microsomal protein fractions (0.5 μg) supplemented with the indicated compound concentrations were added to the reaction mixture containing 100 mM Tris-HCl (pH 7.4), 1 μM CaCl2, 0.015% Tween-20, and two substrates. For acetyltransferase activity, the substrates were 1 mM acetyl-CoA and 5 μM d4-lyso-PAF; for the acyltransferase activity of LPCAT1 or LPCAT2, the substrates were, respectively, palmitoyl-CoA and d31-16:0 LPC or arachidonoyl-CoA and d4-lyso-PAF (all 5 μM). Each lysophospholipid contained fatty acid at the sn-1 position. After incubation at 37°C for 5 min, the reactions were stopped by adding 300 μl methanol containing 17:0 LPC or 14:0/14:0 PC as an internal standard. Deuterium-labeled products were analyzed by LC-MS/MS (Waters, Milford, MA and Thermo Scientific, Waltham, MA). […]
Steps 2 to 5 screening: 96-well plate assay
Acetyltransferase and acyltransferase assays were developed in 96-well plates. The microsomal hLPCAT2, obtained from mcPAF-stimulated CHO-S-PAFR cells was used in steps 1, 2, and 5. The microsomal hLPCAT1 obtained from unstimulated CHO-S cells was used in steps 3 to 5. Each well of the 96-well plates contained 30 µl of 15 µg/ml protein, 600 nl of 2 mM compound, 30 µl buffer C, and two substrates (Fig. 1B and C).
Substrate concentrations were as follows: acetyl-CoA, 250 or 1000 µM acetyl-CoA; […]
arachidonoyl-CoA, 5 µM; palmitoyl-CoA, 5 µM; d4-lyso-PAF, 5 µM; and d31-LPC, 5 µM.
For step 5, compound concentrations were 0, 0.167, 0.67, 2, 6.7, and 20 µM. The deuterium-labeled products were measured by LC-MS/MS. Percentage inhibition (steps 2 to 4) or IC50 (step 5) was used as the hit criterion.
Step 6 screening: BSA assay
The acetyltransferase assay was performed with 20 µM of each compound and microsomal hLPCAT2 from step 1. The assay mixture contained 0.4% BSA and two substrates for lyso-PAFAT activity: 1 mM acetyl-CoA and 5 µM d4-lyso-PAF. Percentage inhibition values were determined.
(§2) Step 7 screening: species-specific differences
(§3) To evaluate the effects on the activity of mouse or human LPCAT1 and LPCAT2, each microsomal fraction was obtained using CHO-S-PAFR cells with or without mcPAF (200 nM) stimulation for 5 min. Acetyltransferase and acyltransferase assays were performed with 20 µM of each compound. Percentage inhibition was calculated in each

Another assay concerns the target T2, mLPCAT1 (Mus musculus, UniProt Q3TFD2).
T2 construct: expressed in transfected cells; host or cells: CHO-S-PAFR cells, microsomal fraction
T2 sequence (Q3TFD2 1-534): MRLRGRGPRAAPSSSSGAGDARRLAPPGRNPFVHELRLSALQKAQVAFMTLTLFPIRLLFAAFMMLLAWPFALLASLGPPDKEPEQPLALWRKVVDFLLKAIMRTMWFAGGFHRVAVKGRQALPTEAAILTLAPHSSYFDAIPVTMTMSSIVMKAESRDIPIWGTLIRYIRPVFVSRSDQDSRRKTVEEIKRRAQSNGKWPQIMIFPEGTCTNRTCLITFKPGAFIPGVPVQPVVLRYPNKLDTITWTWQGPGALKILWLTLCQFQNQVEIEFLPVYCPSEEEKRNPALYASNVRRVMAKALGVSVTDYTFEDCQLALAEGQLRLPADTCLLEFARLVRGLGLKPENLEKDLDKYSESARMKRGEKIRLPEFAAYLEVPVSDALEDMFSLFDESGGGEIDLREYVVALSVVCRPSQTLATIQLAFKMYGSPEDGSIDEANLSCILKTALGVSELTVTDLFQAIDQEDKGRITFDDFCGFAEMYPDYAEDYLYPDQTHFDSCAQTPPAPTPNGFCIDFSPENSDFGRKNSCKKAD
Briefly: lyso-PAFAT (acetyltransferase) activity assay, PAF product. The settings on record: 20 μM compound; microsomal fractions of nonstimulated CHO-S-PAFR cells; n = 3, mean ± SEM. The method, then: as §1
(§4) arachidonoyl-CoA, 5 µM; palmitoyl-CoA, 5 µM; d4-lyso-PAF, 5 µM; and d31-LPC, 5 µM. […]
(§5) deuterium-labeled products were measured by LC-MS/MS. […]
as §2, §3

The target in a further assay is T3, mLPCAT2 (Mus musculus, UniProt Q8BYI6).
T3 construct: expressed in transfected cells; host or cells: CHO-S-PAFR cells, microsomal fraction, with or without mcPAF stimulation
T3 sequence (Q8BYI6 1-544): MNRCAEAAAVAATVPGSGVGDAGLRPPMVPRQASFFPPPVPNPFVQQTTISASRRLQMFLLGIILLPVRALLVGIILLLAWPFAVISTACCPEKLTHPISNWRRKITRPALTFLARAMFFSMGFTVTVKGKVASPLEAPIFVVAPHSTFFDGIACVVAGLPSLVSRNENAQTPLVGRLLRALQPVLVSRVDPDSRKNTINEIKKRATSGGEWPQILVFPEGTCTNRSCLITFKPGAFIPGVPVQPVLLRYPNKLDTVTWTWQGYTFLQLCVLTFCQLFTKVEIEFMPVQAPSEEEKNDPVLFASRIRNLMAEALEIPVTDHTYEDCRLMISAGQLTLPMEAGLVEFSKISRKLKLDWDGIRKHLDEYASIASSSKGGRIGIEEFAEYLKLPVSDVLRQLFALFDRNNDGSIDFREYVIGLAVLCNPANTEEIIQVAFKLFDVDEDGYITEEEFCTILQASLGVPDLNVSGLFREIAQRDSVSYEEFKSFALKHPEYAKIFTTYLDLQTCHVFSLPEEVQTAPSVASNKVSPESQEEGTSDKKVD
The assay is described as above. The following applies: 20 μM compound; microsomal fractions of nonstimulated CHO-S-PAFR cells; n = 3, mean ± SEM. As to the method:
as §1, §4, §5, §2, §3

`CC(C)OC(=O)c1ccc(N2C(=O)C(Cl)=C(Cl)C2=O)cc1` [TSI-01, propan-2-yl 4-(3,4-dichloro-2,5-dioxopyrrol-1-yl)benzoate]: on hLPCAT2, the IC50 (in general, the concentration needed to halve the response being measured) came out at 0.47 µM; the “percentage inhibition, product PAF, hLPCAT2” value amounted to 99.8 ± 0.1 percentage; the “selectivity for hLPCAT2 over hLPCAT1” value was “approximately 10 fold”. The “percentage inhibition, product PAF, mLPCAT1” value on mLPCAT1 is on record as 89.2 ± 1.8 percentage. In addition, at mLPCAT2, the “percentage inhibition, product PAF, mLPCAT2” value stood at 99.2 ± 0.2 percentage.
As to `O=C1C(Cl)=C(N2CCOCC2)C(=O)N1c1ccc(Oc2ccccc2)cc1` [TSI-02, 3-chloro-4-morpholin-4-yl-1-(4-phenoxyphenyl)pyrrole-2,5-dione], the IC50 on hLPCAT2 came to 2.17 µM.
In the case of `CC(C)OC(=O)c1ccc(N2C(=O)C(Cl)=C(Nc3ccccc3O)C2=O)cc1` [TSI-07], at hLPCAT2, the IC50 turned out to be 5.5 µM; the “percentage inhibition, product PAF, hLPCAT2” value turned out to be 90.8 ± 3.0 percentage; the “selectivity for hLPCAT2 over hLPCAT1” value is on record as “approximately 10 fold”. Moreover, the “percentage inhibition, product PAF, mLPCAT1” value at mLPCAT1 is reported as 33.6 ± 6.1 percentage. The “percentage inhibition, product PAF, mLPCAT2” value at mLPCAT2 stood at 84.1 ± 6.4 percentage.
Consider `CCCOC(=O)c1ccc(N2C(=O)C(Cl)=C(Cl)C2=O)cc1` [TSI-10], for which, at hLPCAT2, the half-maximal inhibitory concentration (IC50) is ~0.1 µM and 0.13 µM; the “percentage inhibition, product PAF, hLPCAT2” value is 99.5 ± 0.2 percentage; the “selectivity for hLPCAT2 over hLPCAT1” value is reported as “approximately 10 fold”. Further, on mLPCAT1, the “percentage inhibition, product PAF, mLPCAT1” value is recorded as 89.6 ± 1.1 percentage. Besides, the “percentage inhibition, product PAF, mLPCAT2” value on mLPCAT2 stood at 99.1 ± 0.2 percentage.
For `CCCCOC(=O)c1ccc(N2C(=O)C(Cl)=C(Cl)C2=O)cc1` [TSI-11, butyl 4-(3,4-dichloro-2,5-dioxopyrrol-1-yl)benzoate], on hLPCAT2, the IC50 was ~0.1 µM and 0.14 µM; the “percentage inhibition, product PAF, hLPCAT2” value worked out at 99.4 ± 0.2 percentage; the “selectivity for hLPCAT2 over hLPCAT1” value is given as “approximately 10 fold”. In addition, the “percentage inhibition, product PAF, mLPCAT1” value at mLPCAT1 is on record as 89.3 ± 1.1 percentage. Moreover, the “percentage inhibition, product PAF, mLPCAT2” value at mLPCAT2 is given as 98.9 ± 0.3 percentage.
